Experimental data as given in patent publication US20090312373A1, “METHODS FOR THE TREATMENT OF CANCER USING PIPERLONGUMINE AND PIPERLONGUMINE ANALOGS” (The General Hospital Corporation, priority 2008, published 2009).

Columns and labels:
p53 = p53 acetylation Western blot in U2OS cells; assay type: cell-based, human; details: 6 hours, TSA 10 mM
Protocol: U2OS cells were treated with piperlongumine (SP), the HDAC inhibitor TSA (trichostatin A ([…])) or the control DMSO for 6 hours. Cell extracts were fractionated in SDS-PAGE gel and analyzed by western blot.

MMTV-PyVT mammary tumor = test: MMTV-PyVT spontaneous mammary tumor mouse model; assay type: in vivo
From the text: MMTV-PvVT (FVB/N-Tg) transgenic mice develop multifocal mammary tumor (from hyperplasia to metastatic) with a high incidence of metastasis (Mice were obtained from the NCI repository). This mouse model has been widely used for the correlation studies of human cancer (Guy et al., Moll. Cell. Biol. 12: 954-961, 1992). In addition, this onco-mouse model has been used to evaluate the effectiveness of potential drug therapies. Generally, due to aggressiveness of tumor growth and spread in this mouse-model, only a combination of chemo-drugs is effective in tumor growth inhibition. MMTV-PyVT mice were maintained until mammary tumor size reached to 6 mm, and then piperlongumine (2.4 mg/kg) or vehicle (DMSO) was given daily by i.p. for 13 days. Tumor size was measured every 4 days (See FIGS. 31 and 32).
We compared the anti-tumor activity of piperlongumine (SP2007) with taxol, a well known chemo drug, in the MMTV-PyVT tumor mouse model as described above (8 mice per group). When tumor sizes grew to ˜5-6 mm in diameter, SP2007 (2.4 mg/kg/day) or Taxol (Paclitaxel, 10 mg/kg/day) was administered intraperitoneally (I.P.) daily for two weeks. After two weeks treatment, mice were sacrificed, and mammary tumors excised and the tumor sizes measured. […] The size of the grossly dissected tumors was measured using the formula: mean diameter=(A+B)/2.

[1] = test system: immortalized human breast epithelial cells; test: DNA damage markers in immortalized human breast epithelial cells; assay type: cell-based; details: taxol 10 nM
From the text: (§1) The conditions and time of exposure are indicated in the legend of the figure.

[2] = test system: EJ bladder carcinoma cells; test: Persistent effects after removal of the compound in EJ cells; assay type: cell-based, human; details: 3 hrs treatment, washed, another 6 hrs in medium without compound
Protocol: EJ bladder carcinoma cells were treated with SP2007 (P10: 10 μM and P20: 20 μM), taxol (T10: 10 nM and T20: 20 nM) or DMSO vehicle control for either 20 hrs or 3 hrs. For the 20 hrs experiment, the percentages of remaining living cells ware measured on the end of the 20 hrs treatment time point. […] For the 3 hrs experiment, cells were washed 3 times with PBS after treatment with the and incubated for another 6 hrs in growing medium without SP2007, taxol or DMSO.

[3] = test system: EJ bladder carcinoma and U2OS osteosarcoma cell lines; test: DNA damage in EJ bladder carcinoma and U2OS osteosarcoma cell lines; assay type: cell-based, human
From the text: as §1

CC(/C=C/C(=O)NO)=C\[C@@H](C)C(=O)c1ccc(N(C)C)cc1 [TSA, reference compound]
total amount of p53 (p53): did not increase

CC(=O)O[C@H]1C(=O)[C@@]2(C)[C@H]([C@H](OC(=O)c3ccccc3)[C@]3(O)C[C@H](OC(=O)[C@H](O)[C@@H](NC(=O)c4ccccc4)c4ccccc4)C(C)=C1C3(C)C)[C@]1(OC(C)=O)CO[C@@H]1C[C@@H]2O [Taxol, reference compound]
secondary tumors (MMTV-PyVT mammary tumor; SP2007 2.4 mg/kg/day or Taxol 10 mg/kg/day i.p. for two weeks): moderate and secondary tumors appeared
deaths during treatment (MMTV-PyVT mammary tumor; Taxol 10 mg/kg/day i.p. daily for two weeks): two of the Taxol-treated mice died at day 10
phosphorylated gamma-H2AX and p53 [1]: results in the induction
killing of cancer cells after removal of the compound [2]: significantly weakened

COc1cccc2c1C(=O)c1c(O)c3c(c(O)c1C2=O)C[C@@](O)(C(=O)CO)C[C@@H]3O[C@H]1C[C@H](N)[C@H](O)[C@H](C)O1 [adrimycin, reference compound]
DNA damage (phosphorylated gamma-H2AX levels) [3]: results in the induction of DNA damage
